Here are results for five compounds from patent publication US5459129A, “Condensed heterocyclic compounds, their production and use” (Takeda Chemical Industries, Ltd., priority 1990, dated 1995).

pIC50: −log10 of the molar value.

In assay [1] the target is T1, thymidylate acid synthase (TS) (Mus musculus, UniProt P07607).
T1 construct: endogenous in cells; host or cells: Meth A fibrosarcoma cells (sonicated; 100,000 x g supernatant)
The assay can be described thus: Determination of TS inhibiting action. Type of assay: biochemical. The note with it: roughly refined TS fraction from Meth A fibrosarcoma cells; [3H]dUMP, 1 hour at 37° C.; read-out: IC50 TS (concentration required for 50% inhibiting the TS activity). As to the method:
A roughly refined fraction of TS was prepared from Meth A fibrosarcoma cells serially cultivated in vitro. For culturing the cells, Eagle's minimum essential medium containing 10% (v/v) bovine fetal serum [MEM; Nissui Pharmaceutical Co. Ltd.] was used. The cells in logarithmic growth were recovered and washed twice with a physiological aqueous saline solution buffered with phosphate, which was then suspended in 0.2M sucrose, 0.01M Tris.HCl buffer solution (pH 7.5). The cells were destroyed by ultrasonic wave, and the suspension was subjected to centrifugation (100,000×g), then the supernatant was collected. Using bovine γ-groblin as the standard protein, the protein concentration was measured by using a protein.dye reagent (Bio-Rad), so that the protein concentration was adjusted to 10 mg/ml.
Enzymic reaction was conducted by partially modifying the method described in Biochemistry 5, 3546 (1966). The composition of the reaction medium was as follows; 0.058% (v/v) formaldehyde, 6.78 mM sodium fluoride, 0.2 mM 2-mercapto ethanol, 6.24 mg/ml bovine serum albumin, 80 μM 2'-deoxyuridine-5'-1 phosphoric acid (dUMP), 80 μM tetrahydrofolic acid, 2 mg/ml roughly refined TS fraction and 0.173M Tris.HCl buffer solution (pH 7.5). To the reaction medium were added the compounds of various concentrations obtained in Working Examples. 540 KBg of [^3 H] dUMP relative to 50 μl of the ultimate reaction medium was added, and the reaction was allowed to proceed for 1 hour at 37° C. in a 96-microwell plate. After completion of the reaction, 26.65% trichloroacetic acid and 3.33 mg/ml dUMP were added to suspend the reaction. To the reaction mixture was added 220 μl of 11.4 mg/ml activated charcoal. The whole mixture was subjected to centrifugation, and the radioactivity in 100 μl of the supernatant was measured by liquid scintillation counter to determine the concentration required for 50% inhibiting the TS activity (ICa50), as shown in Table 1.

Assay [2] deals with T2, 5-aminoimidazole-4-carboxyamide ribonucleotide transformylase (AICARTF) (Homo sapiens, UniProt P31939).
T2 construct: AICARTF was prepared from CCRF-CEM human lymphoblast leukemia cells; endogenous in cells; host or cells: CCRF-CEM human lymphoblast leukemia cells
T2 sequence (P31939 whole entry): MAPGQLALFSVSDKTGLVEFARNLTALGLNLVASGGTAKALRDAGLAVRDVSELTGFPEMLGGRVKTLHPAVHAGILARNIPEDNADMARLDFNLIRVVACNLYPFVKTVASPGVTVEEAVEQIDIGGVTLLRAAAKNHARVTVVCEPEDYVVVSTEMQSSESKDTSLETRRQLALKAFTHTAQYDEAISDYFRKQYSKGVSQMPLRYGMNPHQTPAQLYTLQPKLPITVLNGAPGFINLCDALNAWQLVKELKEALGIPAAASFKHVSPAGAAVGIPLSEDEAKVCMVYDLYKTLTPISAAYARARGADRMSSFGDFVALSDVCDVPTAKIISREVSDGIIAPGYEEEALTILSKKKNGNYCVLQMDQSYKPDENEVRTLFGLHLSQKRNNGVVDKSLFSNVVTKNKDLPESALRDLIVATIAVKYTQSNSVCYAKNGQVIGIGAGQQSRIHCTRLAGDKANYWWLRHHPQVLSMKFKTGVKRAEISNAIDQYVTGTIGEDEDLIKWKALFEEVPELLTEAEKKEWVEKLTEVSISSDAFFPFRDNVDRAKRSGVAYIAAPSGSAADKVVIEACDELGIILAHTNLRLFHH
The assay can be described thus: Measurement of AICARTF inhibiting action. Type of assay: biochemical. The settings on record: AICARTF prepared from CCRF-CEM human lymphoblast leukemia cells; absorbance at 298 nm for 15 minutes; read-out: IC50 AICARTF (concentration required for 50% inhibiting the activity of AICARTF). As to the method: AICARTF was prepared from CCRF-CEM human lymphoblast leukemia cells by partially modifying the method described in Biochemistry 20 337 (1981), S. J. Benkovic, et al.
The enzymic reaction was conducted by adding the compounds of various concentrations in Working Examples to 0.95 ml of a solution consisting of a […] Tris.HCl buffer solution (pH 7.4), 5 μM 2-mercaptoethanol,25 μM potassium chloride, 0.1 μM (-)-10-formyl tetrahydrofolic acid and AICARTF, and, before starting the reaction, 0.05 ml of 1 mM 5-aminoimidazole-4-carboxylamide ribonucleotide.
The UV spectrum was measured at 298 nm for 15 minutes at the interval of 15 seconds to evaluate by the increase of absorbance due to the production of tetrahydrofolic acid to determine the concentration required for 50% inhibiting the activity of AICARTF (IC50).

The test system of assay [3] is Meth A fibrosarcoma (Meth A) cells. Nature of the assay: Inhibiting action against growth of Meth A fibrosarcoma cells in vitro. The note with it: 72 hours culture, Coulter counter, read-out: IC50 (concentration required for decreasing the number of cells in the untreated control group by 50%). In kind it is cell-based. Here is the method: Meth A cells (2×10^4 /ml) prepared by a conventional method were inoculated into each well of the 12-microwell plate (2.0 ml in a well), and subjected to standing culture at 37° C. under 5% CO2. The compounds obtained in Working Examples dissolved at appropriate concentrations were diluted to 2-10 times stepwise with an MEM (Nissui Pharmaceutical Co., Ltd.) solution, to and the resulting dilutions were added to the culture medium. The medium was again subjected to standing culture at 37° C. under 5% CO2 for 72 hours. Then, the total number of cells at each concentration was measured by Coulter counter (Coulter Electronic, Florida in U.S.A.), and the average value of the cells in three wells was expressed by the number of cells per milliliter.
The concentrations of the respective compounds required for decreasing the number of cells in the untreated control group by 50% was made IC50 of the respective compounds.

T1 sequence (P07607 whole entry): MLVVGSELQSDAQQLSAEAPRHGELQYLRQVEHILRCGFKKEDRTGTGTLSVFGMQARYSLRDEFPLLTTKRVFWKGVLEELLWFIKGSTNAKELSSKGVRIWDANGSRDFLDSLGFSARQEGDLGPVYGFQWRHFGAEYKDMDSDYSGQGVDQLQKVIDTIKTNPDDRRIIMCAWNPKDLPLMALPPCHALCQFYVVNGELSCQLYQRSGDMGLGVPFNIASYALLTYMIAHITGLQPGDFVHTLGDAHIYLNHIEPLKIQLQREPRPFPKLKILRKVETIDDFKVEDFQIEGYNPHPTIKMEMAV

In the case of `Nc1nc(N)c2c(CCCc3ccc(C(=O)N[C@@H](CCC(=O)N[C@@H](CCC(=O)O)C(=O)O)C(=O)O)cc3)c[nH]c2n1` [Ex. 6, [N-[4-[3-(2,4-diamino-7H-pyrrolo[2,3-d]pyrimidin-5-yl)propyl]benzoyl]-γ-L-glutamyl]-L-glutamic acid], the figures for the pIC50 in assay [1], in assay [2] and in assay [3] were 4.44, 5.05 and 6.21, respectively.

For the compound `Nc1nc(N)c2c(CCCc3ccc(C(=O)N[C@@H](CCC(=O)N[C@@H](CCC(=O)N[C@@H](CCC(=O)O)C(=O)O)C(=O)O)C(=O)O)cc3)c[nH]c2n1` [Ex. 7, [N-[4-[3-(2,4-diamino-7H-pyrrolo[2,3-d]pyrimidin-5-yl)propyl]benzoyl]-γ-L-glutamyl]-γ-L-glutamyl-L-glutamic acid], the pIC50 in assay [1] was 4.40; in assay [2] it was 5.22; in assay [3], 6.24.

With `Nc1nc(N)c2c(CCCc3ccc(C(=O)N[C@@H](CCC(=O)N[C@@H](CCC(=O)N[C@@H](CCC(=O)O)C(=O)O)C(=O)O)C(=O)O)cc3)c[nH]c2n1` [Ex. 8, [N-[4-[3-(2,4-diamino-7H-pyrrolo[2,3-d]pyrimidin-5-yl)propyl]benzoyl]-γ-L-glutamyl]-γ-L-glutamyl-γ-L-glutamic acid], the pIC50 is 4.68 in assay [1] and 6.22 in assay [2].

Turning to `Nc1nc(N)c2c(CCCc3ccc(C(=O)N[C@@H](CCC(=O)N[C@@H](CCC(=O)N[C@@H](CCC(=O)N[C@@H](CCC(=O)N[C@@H](CCC(=O)O)C(=O)O)C(=O)O)C(=O)O)C(=O)O)C(=O)O)cc3)c[nH]c2n1` [Ex. 9, [N-[4-[3-(2,4-diamino-7H-pyrrolo[2,3-d]pyrimidin-5-yl)propyl]benzoyl]-γ-L-glutamyl]-γ-L-glutamyl-γ-L-glutamyl-γ-L-glutamyl-L-glutamic acid], the pIC50 in assay [1] was 4.70; in assay [2], 6.40.

Take `Nc1nc(N)c2c(CCCc3ccc(C(=O)N[C@@H](CCC(=O)N[C@@H](CCC(=O)N[C@@H](CCC(=O)N[C@@H](CCC(=O)N[C@@H](CCC(=O)N[C@@H](CCC(=O)O)C(=O)O)C(=O)O)C(=O)O)C(=O)O)C(=O)O)C(=O)O)cc3)c[nH]c2n1` [Ex. 10, [N-[4-[3-(2,4-diamino-7H-pyrrolo[2,3-d]pyrimidin-5-yl)propyl]benzoyl]-γ-L-glutamyl]-γ-L-glutamyl-γ-L-glutamyl-γ-L-glutamyl-γ-L-glutamyl-L-glutamic acid]: the pIC50 was 4.70 in assay [1] and 6.70 in assay [2].
